Experimental findings from patent US20070077305A1, “Biocompatible polymeric matrix and preparation thereof” (priority 2005, published 2007) are described below.

The data set in a line: In vitro diffusion test of film using Franz apparatus. The class given is in vitro ADME. The settings on record: after 24 h; from chitosan succinic acid film (DS about 60-80%); phosphate buffer pH 7.2, 32° C. Here is the method: The functionalized chitosan polymeric matrix was synthesized as previously described with a degree of substitution of about 60-80%. 500 mg of caffeine was added in 100 mL functionalized chitosan polymeric matrix solution (2.5%) and stirred during […]. Films were produce by applying 20 mL of the solution evenly onto Petri dishes and dried at room temperature for 24-48 h.
The film produced was subjected to an in vitro diffusion test using Franz apparatus, with an exposed surface area of 3.9 cm^2. Polydimethylsiloxan (Silastic®) membranes have been used as barrier and the receptor compartment (dissolution phase) was 1 L of 50 mM phosphate buffer (pH 7.2) at 32° C. At predetermined time intervals, the samples (5 mL aliquots) were analyzed at 272 nm for the determination of caffeine permeation.

As for `Cn1c(=O)c2c(ncn2C)n(C)c1=O` [caffeine], the “amount of caffeine in the receptor compartment” value is recorded as 405 μg/cm^2.
